The text below walks through data of US8652785B2, “Method of screening a modulator of endothelial NO synthase comprising the use of heme binding protein 1” (Sanofi, priority 2008, dated 2014).

Usually EC50 stands for the midpoint of the concentration-response curve. A word on the IC50: it is the midpoint of a concentration-inhibition curve.

One assay relates to eNOS promoter. The assay can be described thus: eNOS-transcription test (eNOS-promoter luciferase reporter cell line EA.csr03). It counts as cell-based. As to conditions: Homo sapiens; EA.csr03 cells; read-out: Cellular EC50 in the eNOS-transcription test. The protocol: The EA.csr03 cells are cells of a stable eNOS-promoter luciferase cell line. It was obtained by transfection of EA.hy926 cells with a firefly luciferase reporter construct, with a 3.5 kb fragment of the eNOS-promoter added. Cultivation of these cells was carried out with IMDM with GlutaMAX™ I supplemented with 100 U/ml penicillin, 100 μg/ml streptomycin, 10% FCS and 0.4 mg/ml geneticin as selection antibiotic. The EA.hy926 cells are a stable human cell line, which was obtained by fusion of HUVEC with the human […] cell line A549. This cell line is characterized by expression of specific endothelial cell markers, e.g. the “van-Willebrand factor”. The cells used are an original culture of Cora Jean Edgell of passage 32. The cells were cultivated in IMDM with GlutaMAX™ I supplemented with 100 U/ml penicillin, 100 μg/ml streptomycin, HAT Hybri-Max™ medium additive (hypoxanthine, aminopterin and thymidine) and Biotect protective medium.
For transcription test for eNOS promoter activation, 20 000 cells per well of the reporter cell line EA.csr03 were sown in a white 96-well cell culture plate. After 24 hours, various dilutions of the substance in cell culture medium were prepared starting from DMSO stock solutions and were preincubated for 10 min at 37° C. on a water bath. Then these incubation media (100 μl/well) were added to the cells. After incubation for 18 hours, the cells were washed twice with DPBS (100 μl/well) and luciferase lysis buffer (50 μl/well) was added. After 10 min, the solubilized luciferase-substrate luciferin (100 μl/well) was added to the cell lysates. During the luciferase-catalyzed oxidation of luciferin to oxyluciferin there is release of chemiluminescence. […] The light units released were measured in the Genios microplate reader from Tecan Deutschland (Crailsheim, Germany).
In general terms: A reporter such as luciferase makes a cellular process visible.

Assay [1] relates to recombinant human proteins on ProtoArrays v3.0. The assay can be described thus: Protein microarray (ProtoArray) labeling and competition, qualitative. In kind it is binding. As to conditions: substance 100 μM. The protocol: (§1) The protein-microarray experiments were carried out using ProtoArrays® v3.0 (Invitrogen, Karlsruhe, Germany). These were nitrocellulose-coated glass plates, on which approx. 5000 recombinant human proteins, in duplicates, were immobilized.
(§2) In the first step the microarrays were incubated for one hour at 4° C. with a MOPS blocking buffer with 0.1% (v/v) Igepal and 1% (w/v) BSA. Then the arrays with the biotin-labeled eNOS transcription enhancers A012 and A013, sometimes in the presence of the unlabeled substance 9257, were incubated at 4° C. for 90 min without shaking, in various test conditions in a MOPS sample buffer with 1% (v/v) Igepal and 1% (w/v) BSA.
(§3) After washing three times, in each case for 1 min, with pure MOPS sample buffer on ice, they were incubated for 30 min with IRDye®680-labeled streptavidin diluted 1/1000 in MOPS sample buffer away from the light, also on ice. IRDye®680- and IRDye®800-labeled secondary antibodies, which recognize the constant Fc-part of the primary antibodies, were used exclusively for the immunodetection of certain proteins. […] The advantage of this wavelength range is the very good signal-to-noise ratio on account of low intrinsic fluorescence. Detection employs the ODYSSEY™ from LI-COR Biosciences (Bad Homburg, Germany). With this instrument it is possible to detect both emission wavelengths on one membrane simultaneously. […]

Another assay deals with T1, human Hexahis-HEBP1 (Homo sapiens, UniProt Q9NRV9).
T1 construct: Hexahis (6xHis) (N); made in house; host or cells: E. coli BL21 Star (DE3)
T1 sequence (Q9NRV9 1-189): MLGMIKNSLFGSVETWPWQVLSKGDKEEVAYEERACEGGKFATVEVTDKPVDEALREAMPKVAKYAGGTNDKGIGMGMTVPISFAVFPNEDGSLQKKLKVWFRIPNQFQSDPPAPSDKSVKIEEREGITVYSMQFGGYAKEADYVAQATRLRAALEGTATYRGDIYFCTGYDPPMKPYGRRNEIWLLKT
The assay can be described thus: Binding studies by quenching of tryptophan fluorescence. An excerpt:
For carrying out binding studies with human HEBP1, it is possible to utilize the intrinsic fluorescence of the tryptophan residues at λ=340 nm, using an excitation wavelength of λ=295 nm. The resultant fluorescence can be “quenched” by binding of porphyrins in spatial proximity to the tryptophan residues. This leads to a decrease of intrinsic fluorescence, which therefore provides a measure for the binding of a ligand. In order to optimize the experimental conditions for these quench measurements it was first necessary to evaluate the spectroscopic properties of the recombinant Hexahis-HEBP1.
Next, studies of the binding of hemin and protoporphyrin IX (PPIX) to human Hexahis-HEBP1 in the presence of eNOS transcription enhancers by tryptophan quenching were carried out. Binding studies with human HEBP1 are carried out using the intrinsic fluorescence of tryptophan residues that are contained. The fluorescence occurring at λ=340 nm after excitation with a wavelength of λ=295 nm can be “quenched” through the binding of porphyrins in proximity to the tryptophan residues. The measured fluorescence decreases as a function of the concentration of the ligands. Using nonlinear regression, it is possible to calculate the binding parameters.
Hemin and PPIX at concentrations from 30 nM to 10 μM were added to a buffered HEBP1 solution (500 nM) and after incubation for 10 min the tryptophan fluorescence was measured (FIG. 3). It was not possible to use higher porphyrin concentrations owing to the low solubility in aqueous systems.
The influence of the eNOS-transcription enhancers on tryptophan quenching by hemin was investigated next. In the experiments the recombinant human HEBP1 at a concentration of 500 nM was preincubated on ice for 30 min with the eNOS-substance 9257 versus DMSO-control in a binding buffer (pH 7.4) of HEPES (20 mM), sodium chloride (100 mM) and DTT (1 mM). Black, 96-well plates were used as the reaction vessel. Then hemin or protoporphyrin IX was added at varying concentrations through addition of the 200-fold concentrated DMSO stock solution and incubated for 10 min at room temperature. Finally, the tryptophan fluorescence was measured after previous optimization at λexc=295 nm and λem=340 nm in the Safire^2 microplate reader (Tecan Deutschland, Crailsheim, Germany).
First we investigated whether substance 9257 can quench the tryptophan fluorescence of HEBP1. […] Therefore the binding of 9257 was investigated indirectly through competition with hemin. For this, HEBP1 (500 nM) was preincubated with 9257 (10 μM) on ice, versus DMSO-control. After 30 min the hemin was added at varying concentrations of 0.1-10 μM and it was incubated at room temperature for a further 10 min before measuring the tryptophan fluorescence (FIG. 4).

In assay [2] the target is T2, Transcription factor EB (TFEB) (Homo sapiens, UniProt P19484).
T2 construct: purchased Invitrogen, Karlsruhe, Germany ProtoArrays v3.0
T2 sequence (P19484 1-476): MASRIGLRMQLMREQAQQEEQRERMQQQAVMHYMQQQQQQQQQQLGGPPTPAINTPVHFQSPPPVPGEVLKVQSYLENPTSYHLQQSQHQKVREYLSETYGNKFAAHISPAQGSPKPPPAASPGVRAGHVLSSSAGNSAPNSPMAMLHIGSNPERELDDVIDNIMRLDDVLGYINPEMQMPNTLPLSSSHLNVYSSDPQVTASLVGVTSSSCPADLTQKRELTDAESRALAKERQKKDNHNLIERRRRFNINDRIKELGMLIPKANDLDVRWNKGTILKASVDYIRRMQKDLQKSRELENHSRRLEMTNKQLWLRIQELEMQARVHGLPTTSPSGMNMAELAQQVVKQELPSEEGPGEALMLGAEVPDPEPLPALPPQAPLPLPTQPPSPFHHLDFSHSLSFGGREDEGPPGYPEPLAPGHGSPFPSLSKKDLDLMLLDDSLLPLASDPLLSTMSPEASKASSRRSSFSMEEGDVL
Put plainly: Protein microarray (ProtoArray) binding, TFEB. How it is done: as §1, §2
as §3, with “Germany).” for “Germany). With this instrument it is possible to detect both emission wavelengths on one membrane simultaneously.”
(§4) These labeling (A) and competition tests (B) were evaluated by quantifying the fluorescence signals.

Assay [3] addresses T3, TBP-related Protein 1 (TBPL1) (Homo sapiens, UniProt P62380).
T3 construct: purchased Invitrogen, Karlsruhe, Germany ProtoArrays v3.0
T3 sequence (P62380 1-186): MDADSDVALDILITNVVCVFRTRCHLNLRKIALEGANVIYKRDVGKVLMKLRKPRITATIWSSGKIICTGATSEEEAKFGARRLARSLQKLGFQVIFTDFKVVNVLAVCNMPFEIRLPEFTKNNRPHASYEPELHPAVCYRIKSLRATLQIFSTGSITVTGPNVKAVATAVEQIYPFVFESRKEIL
The assay can be described thus: Protein microarray (ProtoArray) binding, TBPL1. The protocol:
as §1, §2
as §3, with “Germany).” for “Germany). With this instrument it is possible to detect both emission wavelengths on one membrane simultaneously.”
as §4

Assay [4] has as its target T4, Phosphoserine aminotransferase 1 (PSAT1) (Homo sapiens, UniProt Q9Y617).
T4 construct: purchased Invitrogen, Karlsruhe, Germany ProtoArrays v3.0
T4 sequence (Q9Y617 1-370): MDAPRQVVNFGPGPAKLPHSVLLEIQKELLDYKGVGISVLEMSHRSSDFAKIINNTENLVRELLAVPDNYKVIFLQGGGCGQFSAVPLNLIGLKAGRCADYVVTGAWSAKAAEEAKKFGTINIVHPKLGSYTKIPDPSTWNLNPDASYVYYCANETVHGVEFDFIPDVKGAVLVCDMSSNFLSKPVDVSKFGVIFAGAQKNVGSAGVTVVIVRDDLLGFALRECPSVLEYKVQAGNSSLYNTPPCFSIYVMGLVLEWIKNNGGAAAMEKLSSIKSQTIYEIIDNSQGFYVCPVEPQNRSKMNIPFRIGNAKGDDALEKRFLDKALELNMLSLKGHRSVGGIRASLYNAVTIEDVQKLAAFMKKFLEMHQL
The assay can be described thus: Protein microarray (ProtoArray) binding, PSAT1. How it is done: as §1, §2
as §3, with “Germany).” for “Germany). With this instrument it is possible to detect both emission wavelengths on one membrane simultaneously.”
as §4

The target of assay [5] is T5, Cytidinemonophosphate-N-acetylneuraminic acid-synthetase (CMAS) (Homo sapiens, UniProt Q8NFW8).
T5 construct: purchased Invitrogen, Karlsruhe, Germany ProtoArrays v3.0
T5 sequence (Q8NFW8 whole entry): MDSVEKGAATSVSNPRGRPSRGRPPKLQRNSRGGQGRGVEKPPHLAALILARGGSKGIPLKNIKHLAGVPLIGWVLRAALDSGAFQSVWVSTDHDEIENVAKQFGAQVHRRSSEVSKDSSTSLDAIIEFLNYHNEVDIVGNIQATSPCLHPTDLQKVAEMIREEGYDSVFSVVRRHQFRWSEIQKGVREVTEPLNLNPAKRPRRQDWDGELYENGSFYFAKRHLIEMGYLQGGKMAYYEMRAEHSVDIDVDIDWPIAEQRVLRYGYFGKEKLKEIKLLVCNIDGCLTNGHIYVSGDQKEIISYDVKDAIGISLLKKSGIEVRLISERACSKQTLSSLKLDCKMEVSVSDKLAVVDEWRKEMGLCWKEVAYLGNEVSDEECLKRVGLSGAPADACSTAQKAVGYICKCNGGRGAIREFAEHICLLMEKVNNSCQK
Put plainly: Protein microarray (ProtoArray) binding, CMAS. How it is done: as §1, §2
as §3, with “Germany).” for “Germany). With this instrument it is possible to detect both emission wavelengths on one membrane simultaneously.”
as §4

Assay [6] deals with T6, AMP-activated protein kinase, catalytic subunit alpha 1 (PRKAA1) (Homo sapiens, UniProt Q13131).
T6 construct: purchased Invitrogen, Karlsruhe, Germany ProtoArrays v3.0
T6 sequence (Q13131 whole entry): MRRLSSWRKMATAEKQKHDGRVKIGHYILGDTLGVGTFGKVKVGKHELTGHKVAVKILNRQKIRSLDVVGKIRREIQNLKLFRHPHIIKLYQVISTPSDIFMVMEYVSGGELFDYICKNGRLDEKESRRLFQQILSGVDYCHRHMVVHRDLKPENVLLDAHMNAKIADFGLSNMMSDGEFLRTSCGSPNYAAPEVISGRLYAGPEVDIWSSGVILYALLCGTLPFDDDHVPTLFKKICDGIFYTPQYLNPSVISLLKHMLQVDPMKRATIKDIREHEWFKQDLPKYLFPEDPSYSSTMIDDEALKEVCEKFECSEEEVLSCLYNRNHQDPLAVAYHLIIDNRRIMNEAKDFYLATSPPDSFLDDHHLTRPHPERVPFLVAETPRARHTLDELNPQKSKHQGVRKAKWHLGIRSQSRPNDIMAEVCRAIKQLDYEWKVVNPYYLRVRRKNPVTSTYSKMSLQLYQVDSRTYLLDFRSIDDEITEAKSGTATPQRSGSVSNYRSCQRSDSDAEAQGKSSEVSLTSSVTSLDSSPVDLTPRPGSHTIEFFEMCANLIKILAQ
Put plainly: Protein microarray (ProtoArray) binding, PRKAA1. How it is done: as §1, §2
as §3, with “Germany).” for “Germany). With this instrument it is possible to detect both emission wavelengths on one membrane simultaneously.”
as §4

Assay [7] addresses T7, Mitogen-activated protein kinase 7 (MAPK7) (Homo sapiens, UniProt Q13164).
T7 construct: purchased Invitrogen, Karlsruhe, Germany ProtoArrays v3.0
The assay can be described thus: Protein microarray (ProtoArray) binding, MAPK7. How it is done: as §1, §2
as §3, with “Germany).” for “Germany). With this instrument it is possible to detect both emission wavelengths on one membrane simultaneously.”
as §4

The mark [8] stands for this setting: 0.5 μM HEBP1, ligand 30 nM to 10 μM, 10 min, read-out: IC50 of tryptophan fluorescence quenching.
Setting [9] is: B: A012 (100 μM) in the presence of unlabeled substance 9257 (25 μM).

Read-outs that look alike come from different tables or passages of the source.

T7 sequence (Q13164 whole entry): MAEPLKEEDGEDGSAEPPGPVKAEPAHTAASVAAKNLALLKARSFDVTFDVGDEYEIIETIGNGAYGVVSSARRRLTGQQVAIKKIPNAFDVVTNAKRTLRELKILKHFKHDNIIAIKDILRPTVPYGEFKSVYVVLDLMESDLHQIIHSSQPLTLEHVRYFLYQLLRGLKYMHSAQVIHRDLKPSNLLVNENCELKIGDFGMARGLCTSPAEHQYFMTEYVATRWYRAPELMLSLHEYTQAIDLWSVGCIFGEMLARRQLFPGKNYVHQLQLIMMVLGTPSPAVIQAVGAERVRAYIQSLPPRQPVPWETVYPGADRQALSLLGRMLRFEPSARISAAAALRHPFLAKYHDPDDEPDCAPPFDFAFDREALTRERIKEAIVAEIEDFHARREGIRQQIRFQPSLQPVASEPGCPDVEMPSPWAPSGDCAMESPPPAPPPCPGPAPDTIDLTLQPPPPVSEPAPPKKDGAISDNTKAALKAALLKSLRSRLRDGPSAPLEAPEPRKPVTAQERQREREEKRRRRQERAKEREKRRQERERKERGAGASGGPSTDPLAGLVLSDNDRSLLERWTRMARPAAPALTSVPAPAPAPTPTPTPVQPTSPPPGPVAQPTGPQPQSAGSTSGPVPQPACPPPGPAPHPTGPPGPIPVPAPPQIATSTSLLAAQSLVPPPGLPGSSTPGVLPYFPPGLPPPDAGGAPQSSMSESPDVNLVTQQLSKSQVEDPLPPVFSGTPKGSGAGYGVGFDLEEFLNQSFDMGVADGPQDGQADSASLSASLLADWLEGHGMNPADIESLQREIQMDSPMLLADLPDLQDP

As to `O=C(CCCC[C@@H]1SC[C@@H]2NC(=O)N[C@@H]21)NCCCCCC(=O)NCCOCCOc1ccc(C(=O)N[C@@H]2CCCc3ccccc3C2)cc1` [A013], the EC50 in the assay on eNOS promoter is > 10000 nM. Also, the “labeling of protein duplicates on the microarray” value in assay [1] was “no binding of the substance to the proteins”.
Turning to hemin, the 50% inhibitory concentration (IC50) on human Hexahis-HEBP1 (setting [8]) stood at 3000 nM; at human Hexahis-HEBP1 (HEBP1 500 nM, DMSO-control, hemin 0.1-10 μM, read-out: IC50 of the hemin binding curve, DMSO-control), 1100 nM. The “potency of hemin relative to PPIX” value on human Hexahis-HEBP1 (from IC50 values) amounted to 10 times.
Take `O=C(NC1Cc2ccccc2C1)c1ccc(F)cc1` [AVE9488]: in the assay on eNOS promoter, the concentration for a half-maximal effect (EC50) amounted to 3000 nM.
For `O=C(CCCC[C@@H]1SC[C@@H]2NC(=O)N[C@@H]21)NCCCCCC(=O)NCCOCCOc1ccc(C(=O)N[C@H]2CCCc3ccccc3C2)cc1` [A012], the “Fluorescence intensity A” value came out at 4987 in assay [2] (A: A012 (100 μM)); 10788 in [3] (A: A012 (100 μM)); 3151 in assay [4] (A: A012 (100 μM)); 10411 in [5] (A: A012 (100 μM)); 3791 in assay [6] (A: A012 (100 μM)); 4775 in assay [7] (A: A012 (100 μM)). For the same compound, the “Fluorescence intensity B” value in assay [2] (setting [9]) is reported as 1333; in [3] (setting [9]) it was 4083; in [4] (setting [9]), 2269; in assay [5] (setting [9]) it was 5028; in assay [6] (setting [9]), 1206; in assay [7] (setting [9]), 1135. In the assay with eNOS promoter, the concentration for a half-maximal effect (EC50) was found to be 1200 nM. In addition, the “labeling of protein duplicates on the microarray” value in assay [1] is recorded as “readily discernible”.
Regarding `C=CC1=C(C)c2cc3[nH]c(cc4nc(cc5[nH]c(cc1n2)c(C)c5CCC(=O)O)C(CCC(=O)O)=C4C)c(C)c3C=C` [PPIX, protoporphyrin IX], the IC50 on human Hexahis-HEBP1 (setting [8]) is 13000 nM.
